Results: US20260193278A1, “NOVEL PHTHALOCYANINE COMPOUNDS AND THE USE THEREOF FOR THE TREATMENT OF DISEASES” (RHODES UNIVERSITY, priority 2022, published 2026)

Key:
Type in all cases: cell-based
[1] = tested on: S. aureus; test: Dark toxicity against S. aureus, concentration study at 0 min (CFU counting); conditions: for Staph log CFU/ml (logarithmic reduction value) / Staph μM (concentration corresponding to the logarithmic reduction): in the dark, at 0 min; for Staph log CFU/ml (logarithmic reduction value): at the concentration of the μM column; for Staph μM (concentration corresponding to the logarithmic reduction): range tested 0-10 μM
Method: (§1) 500 μM stock solutions of the samples were prepared in ultra-pure water (5% DMSO) and used at different concentrations in the biological assays.
(§2) Two bacterial strains were used for the PACT studies; S. aureus as a gram-(+) bacterium and E. coli as a gram-(−) negative bacterium. Stock cultures were grown aerobically in 6 mL of nutrient broth incubated at 37° C. on a rotary shaker (~200 rpm) to obtain bacteria cultures. The incubation was maintained until the optical density of the culture at 600 nm was determined to be between 0.6 and 0.8. The resulting bacterial solution was centrifuged to remove the broth, and bacterial cells were washed three times with PBS. The solution of the bacteria was prepared by diluting with PBS to obtain […] bacteria solutions corresponding to ~10^9 and ~10^8 colony forming units (CFU)/mL, respectively.
(§3) The bacteria/photosensitizer mixtures were incubated in an oven equipped with a shaker for 30 min in the dark at 37° C. before plating. 100 μL of solution was taken from the suspension and was immediately inoculated on agar plates to determine the activity at 0 min without treatment. The number of colonies was then counted on each plate after 18 h of incubation at 37° C. Control treatments were performed in the absence of photosensitizer. All experiments were carried out three times. The data for CFU/mL were converted to the logarithmic form.

[2] = tested on: MCF-7 (human breast adenocarcinoma) cells; test: In vitro dark cytotoxicity, MCF-7 cells (anticancer studies); conditions: MCF-7, dark; for Min. Death conc. / Cell death: 24 h; for Cell death: at the Min. Death conc.
Method: MCF-7 (human breast adenocarcinoma) cells were cultured in Dulbecco's modified Eagle's medium-10% fetal bovine serum (DMEM-FBS) and PSA (penicillin/streptomycin/Amphotericin B) at 37° C. in an incubator (5% CO2) in 75 cm^2 vented flasks. The cultures were grown as a monolayer. The growth cells were transferred to well plates by trypsinizing with 0.25% trypsin-EDTA. The Pc stock concentrations were prepared by separately dissolving them in DMSO (1%) and diluting in water and the Pc gradient concentration was prepared by taking known aliquots from the stock and finally made up to marked volume with supplemented media with phenol red.
It was studied from […] both in the dark. 100 μL each of the newly prepared gradient Pcs concentration of 0 μg/mL (control), 5 μg/mL, 10 μg/mL, 20 μg/mL, 40 μg/mL, 60 μg/mL 80 μg/mL, 100 μg/mL and 120 μg/mL were administered on the incubated seeded cells. The 96 well cell culture plates containing the cells and the Pcs were incubated at 37° C. and 5% CO2 in the dark for 24 h. After 24 h treatment, the wells were rinsed with 100 μL DPBS. Cell survival was expressed as percentage of control cells (cells without Pcs). Post treatment cell viability was measured using the cell proliferation […] reagent (WST-1 assay) on a Synergy 2 multi-mode microplate reader (BioTek®) at a wavelength of 450 nm according to the following equation 1.

[3] = tested on: E. coli; test: Dark toxicity against E. coli, concentration study at 0 min (CFU counting); conditions: in the dark; for Ecoli log CFU/ml (logarithmic reduction value): at the concentration of the μM column; for Ecoli μM (concentration corresponding to the logarithmic reduction): range tested 0-15 μM
Method: as §1, §2, §3

Compound	Staph log CFU/ml (logarithmic reduction value) [1]	Staph μM (concentration corresponding to the logarithmic reduction) [1]	Min. Death conc. [2]	Cell death [2]	Ecoli log CFU/ml (logarithmic reduction value) [3]	Ecoli μM (concentration corresponding to the logarithmic reduction) [3]	destruction of bacteria (FIG. 2) ([1]; at 0.5 μM)	log reduction (dark toxicity) ([1]; dark, 0 min, at 0.5-10 μM)	optimal concentration to kill the cancer cells [2]	cancer cells killed at the optimal concentration ([2]; at the optimal concentration)
C[n+]1c(-c2ccc(Oc3ccc4c(c3)C3=Nc5c6ccc(Oc7ccc(-c8[nH]c9cc(Br)cc(Cl)c9[n+]8C)cc7)cc6c6[n]5[Zn][n]5c(c7ccc(Oc8ccc(-c9[nH]c%10cc(Br)cc(Cl)c%10[n+]9C)cc8)cc7c5=NC5=NC(=N6)c6cc(Oc7ccc(-c8[nH]c9cc(Br)cc(Cl)c9[n+]8C)cc7)ccc65)=NC4=N3)cc2)[nH]c2cc(Br)cc(Cl)c21.[I-].[I-].[I-].[I-] [Compound 233]	9.25 log CFU/ml	4 μM	60 µM	91.7%	8.79 log CFU/ml	1 μM				
C[n+]1c(-c2ccc(Oc3ccc4c(c3)C3=Nc5c6ccc(Oc7ccc(-c8[nH]c9cc(Br)cc(Cl)c9[n+]8C)cc7)cc6c6[n]5[Cu][n]5c(c7ccc(Oc8ccc(-c9[nH]c%10cc(Br)cc(Cl)c%10[n+]9C)cc8)cc7c5=NC5=NC(=N6)c6cc(Oc7ccc(-c8[nH]c9cc(Br)cc(Cl)c9[n+]8C)cc7)ccc65)=NC4=N3)cc2)[nH]c2cc(Br)cc(Cl)c21.[I-].[I-].[I-].[I-] [Compound 235]	9.25 log CFU/ml	10 μM	10 µM	34.8%	8.79 log CFU/ml	12.5 μM				
Tetrakis [4-(4-(5-bromo-1H-benzo[d]imidazol-2-yl)phenoxy phthalocyaninato] zinc(II) tetraiodide [Compound 218]	9.15 log CFU/ml	0.5 μM	10 µM	56.6%	8.78 log CFU/ml	1 μM				
Tetrakis [4-(4-(5-bromo-1H-benzo[d]imidazol-2-yl)phenoxy phthalocyaninato] zinc(II) tetraiodide [Compound 217]	9.15 log CFU/ml	1 μM	5 µM	40.1%	8.78 log CFU/ml	5 μM				
C[n+]1c(-c2ccc(Oc3ccc4c(c3)C3=Nc5c6ccc(Oc7ccc(-c8[nH]c9cc(Cl)cc(Cl)c9[n+]8C)cc7)cc6c6[n]5[Co][n]5c(c7ccc(Oc8ccc(-c9[nH]c%10cc(Cl)cc(Cl)c%10[n+]9C)cc8)cc7c5=NC5=NC(=N6)c6cc(Oc7ccc(-c8[nH]c9cc(Cl)cc(Cl)c9[n+]8C)cc7)ccc65)=NC4=N3)cc2)[nH]c2cc(Cl)cc(Cl)c21.[I-].[I-].[I-].[I-] [Compound 200]	9.61 log CFU/ml	0.5 μM	40 µM	80.9%	8.79 log CFU/ml	1 μM	complete destruction	9.63	40 µM	80.9%
C[n+]1c(-c2ccc(Oc3ccc4c(c3)C3=Nc5c6ccc(Oc7ccc(-c8[nH]c9cc(Cl)c(Cl)cc9[n+]8C)cc7)cc6c6[n]5[Zn][n]5c(c7ccc(Oc8ccc(-c9[nH]c%10cc(Cl)c(Cl)cc%10[n+]9C)cc8)cc7c5=NC5=NC(=N6)c6cc(Oc7ccc(-c8[nH]c9cc(Cl)c(Cl)cc9[n+]8C)cc7)ccc65)=NC4=N3)cc2)[nH]c2cc(Cl)c(Cl)cc21.[I-].[I-].[I-].[I-] [Compound 207]	9.31 log CFU/ml	4 μM	120 µM	38.3%	8.79 log CFU/ml	2.5 μM				
